Results from patent US8822517B2, “Arylosulfonamides for the treatment of CNS diseases” (Adamed SP. Z O.O., priority 2010, dated 2014).

How the values were obtained:
adrenergic α1 receptor = test: Binding assay α1 (non-selective), [3H]prazosin, rat cerebral cortex; settings: percent inhibition of control specific binding; compounds tested at 1×10^−6 M
Summary of the method: (§1)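 Binding read by scintillation counting. Non-specific component defined by excess unlabelled ligand and removed from total counts. Compounds at 1×10^−6 M.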

dopaminergic D2 receptor = dopaminergic D2 receptor (Homo sapiens, UniProt P14416); test: Binding assay D2S (h), [3H]methyl-spiperone, HEK-293 cells; parameters: expressed in transfected cells; host or cells: HEK-293 cells; settings: read-out: D2 [%]
Chain of dopaminergic D2 receptor (P14416 1-414 isoform P14416-2): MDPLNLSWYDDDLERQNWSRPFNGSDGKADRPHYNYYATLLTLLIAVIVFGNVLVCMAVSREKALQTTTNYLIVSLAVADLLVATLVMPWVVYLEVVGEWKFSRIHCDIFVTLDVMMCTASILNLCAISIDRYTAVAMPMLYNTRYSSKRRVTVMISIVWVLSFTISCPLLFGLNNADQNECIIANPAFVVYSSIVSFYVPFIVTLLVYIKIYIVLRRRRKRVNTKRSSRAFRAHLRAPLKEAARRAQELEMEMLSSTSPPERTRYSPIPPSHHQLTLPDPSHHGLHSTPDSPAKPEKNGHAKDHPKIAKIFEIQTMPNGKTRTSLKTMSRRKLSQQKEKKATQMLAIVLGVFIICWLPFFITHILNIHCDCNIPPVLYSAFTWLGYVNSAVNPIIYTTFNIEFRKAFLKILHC
Summary of the method: as §1

adrenergic α2C receptor = target: T1, adrenergic α2C receptor (Homo sapiens, UniProt P18825); test: Binding assay α2C (h), [3H]RX 821002, CHO cells; parameters: expressed in transfected cells; host or cells: CHO cells; settings: read-out: α2C [%]
T1 sequence (P18825 1-462): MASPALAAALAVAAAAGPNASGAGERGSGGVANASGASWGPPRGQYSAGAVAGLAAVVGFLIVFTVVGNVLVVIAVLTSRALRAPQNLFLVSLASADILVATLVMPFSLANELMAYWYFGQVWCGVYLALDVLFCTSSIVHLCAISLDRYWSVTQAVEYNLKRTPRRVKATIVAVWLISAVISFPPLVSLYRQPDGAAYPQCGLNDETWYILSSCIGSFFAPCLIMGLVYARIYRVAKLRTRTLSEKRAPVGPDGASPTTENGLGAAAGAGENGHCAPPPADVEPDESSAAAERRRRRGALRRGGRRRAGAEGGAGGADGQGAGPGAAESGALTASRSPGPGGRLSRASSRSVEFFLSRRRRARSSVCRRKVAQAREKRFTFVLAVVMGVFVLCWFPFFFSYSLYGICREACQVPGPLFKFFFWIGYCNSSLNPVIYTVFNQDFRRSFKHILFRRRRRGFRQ
Summary of the method: as §1

[1] = target: T2, serotonine transporter (SERT) receptor (Homo sapiens, UniProt P31645); test: Binding assay SERT (h), [3H]imipramine, CHO cells; settings: read-out: SERT [%]
T2 construct: expressed in transfected cells; host or cells: CHO cells
T2 sequence (P31645 whole entry): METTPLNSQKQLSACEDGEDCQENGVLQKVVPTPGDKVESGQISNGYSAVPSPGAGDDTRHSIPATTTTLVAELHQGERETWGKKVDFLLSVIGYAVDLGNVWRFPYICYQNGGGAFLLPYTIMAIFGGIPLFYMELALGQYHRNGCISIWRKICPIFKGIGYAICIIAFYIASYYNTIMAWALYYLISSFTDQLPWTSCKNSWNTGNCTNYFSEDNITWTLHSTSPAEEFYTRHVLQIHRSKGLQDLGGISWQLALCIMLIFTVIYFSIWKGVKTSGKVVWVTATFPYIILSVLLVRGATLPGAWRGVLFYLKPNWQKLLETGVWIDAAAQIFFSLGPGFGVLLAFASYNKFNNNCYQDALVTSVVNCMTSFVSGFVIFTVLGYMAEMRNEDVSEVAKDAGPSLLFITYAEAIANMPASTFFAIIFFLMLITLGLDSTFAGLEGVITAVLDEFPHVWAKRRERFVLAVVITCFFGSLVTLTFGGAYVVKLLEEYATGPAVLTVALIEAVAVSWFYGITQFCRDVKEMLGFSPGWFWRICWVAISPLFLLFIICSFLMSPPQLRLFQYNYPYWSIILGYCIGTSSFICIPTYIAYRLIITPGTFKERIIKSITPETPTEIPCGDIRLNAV
Summary of the method: as §1

[2] = target: T3, serotoninergic 5-HT1A receptor (Homo sapiens, UniProt P08908); test: Binding assay 5-HT1A (h), [3H]8-OH-DPAT, HEK-293 cells; parameters: expressed in transfected cells; host or cells: HEK-293 cells; settings: read-out: 5-HT1A
T3 sequence (P08908 1-422): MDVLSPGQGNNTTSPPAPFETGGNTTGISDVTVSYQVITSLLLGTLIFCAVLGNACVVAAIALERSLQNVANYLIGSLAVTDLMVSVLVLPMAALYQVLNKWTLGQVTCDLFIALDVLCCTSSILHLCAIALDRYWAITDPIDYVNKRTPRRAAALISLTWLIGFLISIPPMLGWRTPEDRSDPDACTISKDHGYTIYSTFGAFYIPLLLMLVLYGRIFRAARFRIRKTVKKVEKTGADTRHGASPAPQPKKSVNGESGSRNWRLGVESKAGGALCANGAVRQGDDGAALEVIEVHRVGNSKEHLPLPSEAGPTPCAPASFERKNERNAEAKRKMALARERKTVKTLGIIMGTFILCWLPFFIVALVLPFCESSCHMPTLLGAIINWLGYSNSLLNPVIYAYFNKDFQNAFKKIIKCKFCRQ
Summary of the method: as §1

[3] = target: histaminergic H1 receptor (Homo sapiens, UniProt P35367); test: Binding assay H1 (h), [3H]pyrilamine, HEK-293 cells; parameters: expressed in transfected cells; host or cells: HEK-293 cells; settings: read-out: H1 [%]
Chain of histaminergic H1 receptor (P35367 whole entry): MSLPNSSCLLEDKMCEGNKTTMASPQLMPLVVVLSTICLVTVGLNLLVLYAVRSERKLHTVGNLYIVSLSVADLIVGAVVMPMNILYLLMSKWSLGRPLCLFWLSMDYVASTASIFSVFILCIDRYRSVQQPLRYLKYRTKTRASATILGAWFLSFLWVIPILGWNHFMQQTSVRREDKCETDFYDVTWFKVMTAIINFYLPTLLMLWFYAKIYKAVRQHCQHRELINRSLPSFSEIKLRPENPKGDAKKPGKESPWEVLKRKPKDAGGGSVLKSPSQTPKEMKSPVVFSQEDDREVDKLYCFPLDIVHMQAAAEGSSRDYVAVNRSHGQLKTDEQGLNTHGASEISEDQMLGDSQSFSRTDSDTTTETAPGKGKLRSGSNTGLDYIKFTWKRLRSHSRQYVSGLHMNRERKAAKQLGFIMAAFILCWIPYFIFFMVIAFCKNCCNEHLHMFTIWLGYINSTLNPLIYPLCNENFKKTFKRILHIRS
Summary of the method: as §1

[4] = target: T4, serotoninergic 5-HT7 receptor (Homo sapiens, UniProt P34969); test: Cellular functional assay, serotoninergic 5-HT7 receptor (agonism/antagonism); format: cell-based; settings: for activation at 1 µM: agonist effect, percent of control specific agonist response, compounds tested at 1×10^−6M, read-out: 5-HT7-ag [%]; for inhibition at 1 µM: read-out: 5-HT7-antag. [%]
T4 sequence (P34969 whole entry): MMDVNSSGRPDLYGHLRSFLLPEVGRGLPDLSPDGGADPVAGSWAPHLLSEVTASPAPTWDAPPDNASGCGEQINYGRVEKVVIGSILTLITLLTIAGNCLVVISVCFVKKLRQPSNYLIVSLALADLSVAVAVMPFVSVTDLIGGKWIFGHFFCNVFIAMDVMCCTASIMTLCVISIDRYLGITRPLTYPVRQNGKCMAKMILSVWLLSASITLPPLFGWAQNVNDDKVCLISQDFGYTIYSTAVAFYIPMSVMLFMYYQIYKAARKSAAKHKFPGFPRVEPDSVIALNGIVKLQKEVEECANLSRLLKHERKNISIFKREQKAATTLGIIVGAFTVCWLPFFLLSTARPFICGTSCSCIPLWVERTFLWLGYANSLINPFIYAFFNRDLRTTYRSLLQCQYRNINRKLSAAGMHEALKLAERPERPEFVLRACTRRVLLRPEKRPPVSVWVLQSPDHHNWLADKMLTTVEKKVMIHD
Method: (§2) The compounds were tested at the concentration of 1×10^−6M.
(§3) In the Tables ag refers to agonism, and antag to antagonism).

sigma σ receptor = test: Binding assay σ (non-selective), [3H]DTG, rat cerebral cortex; settings: percent inhibition of control specific binding; compounds tested at 1×10^−6 M
Summary of the method: as §1

[5] = target: T4, serotoninergic 5-HT7 receptor; test: Binding assay 5-HT7 (h), [3H]LSD, CHO cells; parameters: expressed in transfected cells; host or cells: CHO cells; settings: read-out: 5-HT7
Summary of the method: as §1

[6] = target: serotoninergic 5-HT2A receptor (Homo sapiens, UniProt P28223); test: Binding assay 5-HT2A (h), [3H]ketanserin, HEK-293 cells; parameters: expressed in transfected cells; host or cells: HEK-293 cells; settings: read-out: 5-HT2A
Chain of serotoninergic 5-HT2A receptor (P28223 whole entry): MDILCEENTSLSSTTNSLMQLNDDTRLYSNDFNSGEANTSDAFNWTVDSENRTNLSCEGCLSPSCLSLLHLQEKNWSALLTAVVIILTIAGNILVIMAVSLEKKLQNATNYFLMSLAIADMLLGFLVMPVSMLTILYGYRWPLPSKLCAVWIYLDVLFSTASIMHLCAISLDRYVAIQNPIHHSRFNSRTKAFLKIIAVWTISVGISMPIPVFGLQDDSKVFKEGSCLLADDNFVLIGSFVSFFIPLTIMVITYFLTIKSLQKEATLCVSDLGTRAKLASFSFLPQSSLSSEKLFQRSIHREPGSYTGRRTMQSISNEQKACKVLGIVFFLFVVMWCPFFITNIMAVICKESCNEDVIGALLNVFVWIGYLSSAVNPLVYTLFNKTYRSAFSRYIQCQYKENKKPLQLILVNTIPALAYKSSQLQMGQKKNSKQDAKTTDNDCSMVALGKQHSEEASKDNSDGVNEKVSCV
Summary of the method: as §1

muscarinic M3 receptor = target: T5, muscarinic M3 receptor (Homo sapiens, UniProt P20309); test: Binding assay M3 (h), [3H]4-DAMP, CHO cells; settings: read-out: M3 [%]
T5 construct: expressed in transfected cells; host or cells: CHO cells
T5 sequence (P20309 whole entry): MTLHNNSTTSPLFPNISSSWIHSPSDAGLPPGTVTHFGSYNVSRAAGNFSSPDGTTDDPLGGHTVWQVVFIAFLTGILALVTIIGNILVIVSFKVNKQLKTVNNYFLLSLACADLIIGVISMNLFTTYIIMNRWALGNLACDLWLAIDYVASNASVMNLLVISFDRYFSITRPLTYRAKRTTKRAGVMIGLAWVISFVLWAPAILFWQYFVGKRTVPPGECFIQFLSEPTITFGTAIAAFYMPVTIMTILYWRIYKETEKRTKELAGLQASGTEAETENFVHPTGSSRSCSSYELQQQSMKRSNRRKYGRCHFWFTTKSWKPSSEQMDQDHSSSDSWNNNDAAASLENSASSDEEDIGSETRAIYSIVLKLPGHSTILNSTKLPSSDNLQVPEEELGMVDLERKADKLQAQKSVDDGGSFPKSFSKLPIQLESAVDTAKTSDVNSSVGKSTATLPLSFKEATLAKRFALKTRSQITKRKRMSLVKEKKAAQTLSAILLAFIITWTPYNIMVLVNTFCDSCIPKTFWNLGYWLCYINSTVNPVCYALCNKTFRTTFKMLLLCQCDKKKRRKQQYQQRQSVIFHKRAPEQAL
Summary of the method: as §1

[7] = target: T6, serotoninergic 5-HT6 receptor (Homo sapiens, UniProt P50406); test: Binding assay 5-HT6 (h), [3H]LSD, CHO cells; parameters: expressed in transfected cells; host or cells: CHO cells; settings: read-out: 5-HT6
T6 sequence (P50406 whole entry): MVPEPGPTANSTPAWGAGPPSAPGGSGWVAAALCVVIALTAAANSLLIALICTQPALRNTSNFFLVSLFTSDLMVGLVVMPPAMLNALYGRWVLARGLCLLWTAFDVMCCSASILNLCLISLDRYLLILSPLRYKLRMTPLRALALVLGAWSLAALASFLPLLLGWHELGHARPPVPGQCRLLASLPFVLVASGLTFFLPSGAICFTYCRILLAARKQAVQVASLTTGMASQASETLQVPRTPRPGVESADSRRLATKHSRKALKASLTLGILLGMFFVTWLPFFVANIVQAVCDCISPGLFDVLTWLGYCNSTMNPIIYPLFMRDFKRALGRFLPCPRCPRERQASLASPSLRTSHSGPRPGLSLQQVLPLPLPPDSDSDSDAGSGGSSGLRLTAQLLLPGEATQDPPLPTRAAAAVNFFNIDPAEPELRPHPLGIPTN
Summary of the method: as §1

[8] = target: T6, serotoninergic 5-HT6 receptor; test: Cellular functional assay, serotoninergic 5-HT6 receptor (agonism/antagonism); format: cell-based; settings: for activation at 1 µM: agonist effect, percent of control specific agonist response, compounds tested at 1×10^−6M, read-out: 5-HT6-ag [%]; for inhibition at 1 µM: read-out: 5-HT6-antag. [%]
Method: as §2, §3

[9] = target: T7, serotoninergic receptor 5-HT2C (Homo sapiens, UniProt P28335); test: Binding assay 5-HT2C (h), [3H]mesulergine, HEK-293 cells; settings: read-out: 5-HT2C [%]
T7 construct: expressed in transfected cells; host or cells: HEK-293 cells
T7 sequence (P28335 33-458): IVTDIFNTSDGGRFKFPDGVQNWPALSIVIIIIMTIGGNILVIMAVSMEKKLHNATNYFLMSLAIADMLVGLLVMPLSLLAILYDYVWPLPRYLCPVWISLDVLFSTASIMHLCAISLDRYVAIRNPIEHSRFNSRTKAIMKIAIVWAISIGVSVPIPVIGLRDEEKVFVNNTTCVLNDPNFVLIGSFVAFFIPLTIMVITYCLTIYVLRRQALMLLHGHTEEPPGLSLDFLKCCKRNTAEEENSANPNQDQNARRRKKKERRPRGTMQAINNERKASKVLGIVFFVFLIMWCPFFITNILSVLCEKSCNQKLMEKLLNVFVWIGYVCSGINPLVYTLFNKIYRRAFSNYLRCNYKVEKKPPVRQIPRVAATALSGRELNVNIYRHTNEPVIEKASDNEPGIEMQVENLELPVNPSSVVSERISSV
Summary of the method: as §1

dopaminergic D3 receptor = dopaminergic D3 receptor (Homo sapiens, UniProt P35462); test: Binding assay D3 (h), [3H]methyl-spiperone, CHO cells; parameters: expressed in transfected cells; host or cells: CHO cells; settings: read-out: D3 [%]
Chain of dopaminergic D3 receptor (P35462 whole entry): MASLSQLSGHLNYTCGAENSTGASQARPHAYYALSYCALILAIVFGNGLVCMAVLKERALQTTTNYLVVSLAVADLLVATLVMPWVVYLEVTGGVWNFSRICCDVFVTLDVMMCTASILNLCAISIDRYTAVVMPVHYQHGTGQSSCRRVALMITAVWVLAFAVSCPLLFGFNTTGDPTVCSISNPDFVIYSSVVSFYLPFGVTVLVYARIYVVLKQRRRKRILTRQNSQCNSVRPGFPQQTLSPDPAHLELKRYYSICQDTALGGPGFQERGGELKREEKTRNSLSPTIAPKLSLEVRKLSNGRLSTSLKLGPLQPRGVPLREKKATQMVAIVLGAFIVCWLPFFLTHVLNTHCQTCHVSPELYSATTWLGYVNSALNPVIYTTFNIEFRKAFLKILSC
Summary of the method: as §1

Compound | α1 [%] (adrenergic α1 receptor) | inhibition at 1 µM (dopaminergic D2 receptor) [%] | inhibition at 1 µM (adrenergic α2C receptor) [%] | inhibition at 1 µM [1] [%] | inhibition at 1 µM [2] [%] | inhibition at 1 µM [3] [%] | activation at 1 µM [4] [%] | inhibition at 1 µM [4] [%] | σ [%] (sigma σ receptor) | inhibition at 1 µM [5] [%] | inhibition at 1 µM [6] [%] | inhibition at 1 µM (muscarinic M3 receptor) [%] | inhibition at 1 µM [7] [%] | activation at 1 µM [8] [%] | inhibition at 1 µM [8] [%] | inhibition at 1 µM [9] [%] | inhibition at 1 µM (dopaminergic D3 receptor) [%]
O=S(=O)(NCCCN1CCC(c2noc3cc(F)ccc23)CC1)c1ccc2ccccc2c1 [Compound 21, N-[3-[4-(6-Fluoro-1,2-benzoxazol-3-yl)piperidin-1-yl]propyl]naphthalene-2-sulphonamide] | 97 | 99 | 98 | 46 | 77 | 90 | 0 | 98 | 82 | 99 | 100 | 2 | 93 | -2 | 39 | 87 | 97
O=S(=O)(NCCN1CCN(c2nsc3ccccc23)CC1)c1ccc2ccccc2c1 [Compound 10, N-(2-(4-(1,2-Benzothiazol-3-yl)piperazin-1-yl)ethyl)naphthalene-2-sulphonamide] | 79 | 94 | 98 | 50 | 97 | 81 | 0 | 85 | 31 | 99 | 99 | -2 | 37 | 1 | -16 | 54 | 97
O=S(=O)(NCCCCN1CCN(c2nsc3ccccc23)CC1)c1ccc2c(c1)OCO2 [Compound 245, N-[4-[4-(1,2-Benzothiazol-3-yl)piperazin-1-yl]butyl]-1,3-benzodioxole-5-sulphonamide] | 96 | 97 | 101 | 38 | 99 | 98 |  |  | 52 | 98 | 99 | 25 | 82 |  |  | 72 | 97
O=S(=O)(NCCCN1CCN(c2nsc3ccccc23)CC1)c1ccc(F)c(F)c1 [Compound 249, N-[3-[4-(1,2-Benzothiazol-3-yl)piperazin-1-yl]propyl]-3,4-difluorobenzenesulphonamide] | 99 | 98 | 98 | 77 | 100 | 97 |  |  | 68 | 100 | 101 | 9 | 101 |  |  | 89 | 100
O=c1[nH]c2cccc(N3CCN(CCCNS(=O)(=O)c4cccc(F)c4)CC3)c2[nH]1 [Compound 176, 3-Fluoro-N-[3-[4-(2-oxo-1,3-dihydrobenzimidazol-4-yl)piperazin-1-yl]propyl]benzenesulphonamide] | 77 | 89 | 44 | -3 | 97 | 8 |  |  | −25 | 80 | 7 | 6 | 29 |  |  | 9 | 95
CC(C)(C)c1ccc(S(=O)(=O)NCCCCN2CCC(c3noc4cc(F)ccc34)CC2)cc1 [Compound 301, 4-tert-Butyl-N-[4-[4-(6-fluoro-1,2-benzoxazol-3-yl)piperidin-1-yl]butyl]benzenesulphonamide] | 96 | 96 | 98 | 45 | 77 | 88 |  |  | 73 | 98 | 101 | 18 | 94 |  |  | 79 | 96
O=S(=O)(NCCCCN1CCN(c2nsc3ccccc23)CC1)c1cccc2scnc12 [Compound 243, N-[4-[4-(1,2-Benzothiazol-3-yl)piperazin-1-yl]butyl]-1,3-benzothiazole-4-sulphonamide] | 97 | 100 | 96 | 63 | 98 | 93 |  |  | 29 | 99 | 100 | 10 | 73 |  |  | 81 | 93
Cc1c(S(=O)(=O)NCCCN2CCN(c3nsc4ccccc34)CC2)sc2ccc(F)cc12 [Compound 66, N-[3-[4-(1,2-Benzothiazol-3-yl)piperazin-1-yl]propyl]-5-fluoro-3-methylbenzothiophene-2-sulphonamide] | 93 | 101 | 103 | 93 | 98 | 99 |  |  | 61 | 101 | 101 | 10 | 95 |  |  | 86 | 101
